Patent US8017620B2, “Dutpase inhibitors” (Medivir AB, priority 2004, dated 2011)
Like-named read-outs stand apart in the source and are kept apart here.

Columns and labels:
[1] = molecular target: T1, Plasmodium falciparum dUTPase (Plasmodium falciparum, UniProt Q8II92); assay: Inhibition of Plasmodium falciparum dUTPase (malaria enzyme assay); type: biochemical
T1 construct: made in house; host or cells: E. coli BL21 (DE3)
T1 sequence (Q8II92 1-173): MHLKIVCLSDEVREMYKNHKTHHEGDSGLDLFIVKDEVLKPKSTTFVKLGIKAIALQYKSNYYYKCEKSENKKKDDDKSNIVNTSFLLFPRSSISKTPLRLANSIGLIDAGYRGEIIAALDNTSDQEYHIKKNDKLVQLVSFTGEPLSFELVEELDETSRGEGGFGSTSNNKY
Method: Inhibition of Plasmodium falciparum dUTPase
2′-dUTP, was purchased from Pharmacia. MgCl2, BSA, and the pH indicator cresol red were from Sigma. The buffer N,N-bis(2-hydroxyethyl)glycine (BICINE) was obtained from USB (United States Biochemical), Ohio. All the concentrations of nucleotides were calculated spectrophotometrically (HP-8453, Hewlett Packard) at 280 nm, using the extinction coefficient (ε280 nm=1.75 ml mg^−1cm^−1). Other chemicals used in these experiments were of the highest quality available.
Conserved motifs of the human dUTPase enzyme were used as query to identify the PFdut gene in the www.tigr.org database of the Plasmodium falciparum 3D7 strain. The entire coding sequence was amplified by the PCR using as template cDNA and as primers the oligonucleotides ATG-PFdut ([…]) and TGA-PFdut ([…]) which were designed so that NdeI and BamHI restriction sites were introduced at the 5′ and 3′ ends for convenient cloning in the expression vector pET11 (Stratagene). The amplified product was cloned into pGEMT (Promega) and propagated in E. coli XL1B cells. In order to confirm the correct sequence after amplification, sequencing was performed using an Applied Biosystems Automated Sequencer, at the Analytical Services of the Instituto de Parasitología y Biomedicina “López Neyra”. These Services also supplied the oligonucleotides designed for the sequencing
Recombinant P. falciparum dUTPase was purified from E. coli BL21 (DE3) cells transformed with pET-PFdut. Pellets from a liter of culture were resuspended in a solution consisting of buffer A (20 mM MES pH 5.5, 50 mM NaCl, 1 mM DTT) plus the protease inhibitors 1 mM PMSF, 20 μg/ml leupeptin and 1 mM benzamidine. Purification was carried out in a cold room (4° C.). The soluble crude extract was obtained by sonication in a Vibra-cell (Sonics and Materials Inc. Danbury, Conn., USA) and centrifugation at 14000×g. The extract was loaded onto a phosphocellulose column (Whatman) pre-equilibrated with buffer A at a flow rate of 1 ml/min. After washing the column with 100 ml of buffer A, elution was performed using a linear NaCl gradient of 50 to 1000 mM. Peak fractions with a low concentration of contaminating protein, as judged by 15% SDS-PAGE gels, were pooled and then loaded and chromatographed on a Superdex 200 column at a flow rate of 0.5 ml/min. The column was equilibrated with buffer B (50 mM Bicine, 1 mM DTT, 10 mM MgCl2). Peak fractions were pooled and concentrated to about 5 mg/ml by ultrafiltration in a Centripep tube (Amicon) and stored at −80° C.
Nucleotide hydrolysis was monitored by mixing enzyme and substrate with a rapid kinetic accessory (Hi-Tech Scientific) attached to a spectrophotometer (Cary 50) and connected to a computer for data acquisition and storage. Protons, released through the hydrolysis of nucleotides, were neutralised by a pH indicator in a weak buffered medium with similar pKa and monitored spectrophotometrically at the absorbance peak of the basic form of the indicator. Absorbance changes were kept within 0.1 units. The indicator/buffer pair used was cresol red/BICINE ([…], pH 8, 573 nm). The measurements were performed at 25° C., and the solutions were previously degassed. […] Indicator absorbance changes corresponding to complete hydrolysis of nucleotides were recorded in the computer, and the kinetic parameters Vmax and Kmapp (or slope) were calculated by fitting the data to the integrated Michaelis-Menten equation (Segel, 1975). […]

[2] = molecular target: T2, Human recombinant dUTPase (Homo sapiens, UniProt P33316); assay: Human dUTPase assay; type: biochemical; conditions: human enzyme versus Plasmodium falciparum enzyme
T2 construct: made in house; host or cells: E. coli BL21 (DE3)
T2 sequence (P33316 112-252 limits assumed): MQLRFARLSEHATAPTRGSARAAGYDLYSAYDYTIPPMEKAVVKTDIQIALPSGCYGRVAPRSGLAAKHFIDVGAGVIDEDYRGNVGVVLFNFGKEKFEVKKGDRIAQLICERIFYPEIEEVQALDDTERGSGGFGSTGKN
Method: Human recombinant dUTPase was purified from E. coli BL21 (DE3) cells transformed with pETHudut (Dr. P. O. Nyman, Lund University). Purification was accomplished as described for the dUTPase above except that the last step in Superdex 200 was omitted. Likewise, conditions for enzyme assays were the same as described above except that the enzyme concentration was 50 nM.

[3] = tested on: P. falciparum; assay: Malaria whole cell assay (3H-hypoxanthine incorporation); type: cell-based; conditions: Plasmodium falciparum cell culture; read-out: ED50 (the source's name)
Method: Two strains of P. falciparum are used in this study: The drug sensitive NF54 (an airport strain of unknown origin) and K1 (Thailand, chloroquine and pyrimethamine resistant). The strains are maintained in RPMI-1640 medium with 0.36 mM hypoxanthine supplemented with 25 mM HEPES, 25 mM NaHC03, neomycin (100 U/ml) and Albumax^R (lipid-rich bovine serum albumin) (GIBCO, Grand Island, N.Y.) (5 g/l), together with 5% washed human A+ erythrocytes. All cultures and assays are conducted at 37° C. under an atmosphere of 4% C02, 3% 02 and 93% N2. Cultures are kept in incubation chambers filled with the gas mixture. Subcultures are diluted to a parasitaemia of 0.1-0.5% and the medium changed daily.
Antimalarial activity is assessed using an adaptation of the procedures described by Desjardins et al. (Antimicrob. Agents Chemother. 16(6):710-8, 1979), and Matile and Pink (In: Lefkovits, I. and Pernis, B. (Eds.). Immunological Methods. Academic Press, San Diego, pp. 221-234, 1990).
After use the stocks are kept at −20° C. The compound is further diluted to the appropriate concentration using complete medium without hypoxanthine.
Assays are performed in sterile 96-well microtiter plates, each well containing 200 μl of parasite culture (0.15% parasitemia, 2.5% hematocrit) with or without serial drug solutions. Seven 2-fold dilutions are used covering a range from 5 μg/ml 0.078 μg/ml.
After 48 hours of incubation at 37° C., 0.5 μCi ^3H-hypoxanthine is added to each well. Cultures are incubated for a further 24 h before they are harvested onto glass-fiber filters and washed with distilled water. The radioactivity is counted using a Betaplate™ liquid scintillation counter (Wallac, Zurich, Switzerland). […] From the sigmoidal inhibition curves IC50 values are calculated.
K1 strain is used. The compounds are tested at 7 concentrations (5000 to 78 ng/ml). Artemisinin and chloroquine are included as reference drugs.
A new range of concentrations is chosen depending on the IC50 determined (e.g. 100 to 1.56 ng/ml) and the assay is carried out 2× independently.
The standard drugs are chloroquine and artemisinin which are run in the same assay.

[4] = molecular target: Leishmania dUTPase (Leishmania major, UniProt O15826); conditions: Hidalgo-Zarco and González-Pacanowska 2001; cited from earlier work
Leishmania dUTPase, sequence (O15826 entry or part of it): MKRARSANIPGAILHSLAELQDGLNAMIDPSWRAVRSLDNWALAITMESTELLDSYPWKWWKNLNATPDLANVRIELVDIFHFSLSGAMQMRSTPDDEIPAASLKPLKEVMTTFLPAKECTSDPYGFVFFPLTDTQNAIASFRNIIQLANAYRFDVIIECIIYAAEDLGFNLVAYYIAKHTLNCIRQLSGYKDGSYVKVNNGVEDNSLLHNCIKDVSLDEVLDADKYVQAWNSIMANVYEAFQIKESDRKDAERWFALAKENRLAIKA

[5] = Plasmodium falciparum enzyme, read-out: Ki

Row | Structure (SMILES) | Ki [1] [µM] | SI (selectivity over the human enzyme) [2] | EC50 [3] [µM] | inhibition of Leishmania dUTPase [4] | Ki [1, 5] [µM]
1 | O=c1ccn(CCCCO[Si](c2ccccc2)(c2ccccc2)c2ccccc2)c(=O)[nH]1 | 1.69 | 226 | 0.43 |  | 
2 | O=c1ccn(CCCCOC(c2ccccc2)(c2ccccc2)c2ccccc2)c(=O)[nH]1 | 1.62 | 617 | 4.9 |  | 
3 | COc1ccc(C(OC[C@H]2O[C@@H](n3ccc(=O)[nH]c3=O)C[C@@H]2O)(c2ccccc2)c2ccc(OC)cc2)cc1 [5′-O-(4-4′-dimethoxytrityl)-2′-deoxyuridine] |  |  |  | no inhibition | 
4 | O=c1ccn(CCCCNC(c2ccccc2)(c2ccccc2)c2ccccc2)c(=O)[nH]1 |  | 1111 | 3.8 |  | 0.9
5 | O=c1ccn(COCCOC(c2ccccc2)(c2ccccc2)c2ccccc2)c(=O)[nH]1 | 0.67 | 25.3 | 0.9 |  | 
6 | O=c1ccn([C@H]2C[C@H](O)[C@@H](COP(=O)(O)NP(=O)(O)OP(=O)(O)O)O2)c(=O)[nH]1 [α-β-imido-dUTP] |  |  |  | Competitive inhibition | 
7 | O=c1ccn(CCCCCNC(c2ccccc2)(c2ccccc2)c2ccccc2)c(=O)[nH]1 |  | >233 | 2.2 |  | 4.29
